Here are results for seven molecules from patent US20250353891A1 (MEDIMMUNE LIMITED, priority 2022, published 2025).

Like-named read-outs stand apart in the source and are kept apart here. Starred links: 1 amine or outer side, 2 acyl side, 3 side chain; linkers in the order of their positions; H or OH if unused. Non-standard residues stand in square brackets, D forms with d. Residues, ends and D or L forms follow the SMILES beside them. Groups on a side chain read outwards from the residue. *: point of attachment. C18 diacid = O=C(O)CCCCCCCCCCCCCCCCC(=O)*; γGlu = O=C(O)[C@H](CCC(=O)[*:2])N[*:1]; αMeF = C[C@](N)(Cc1ccccc1)C(=O)O; AEEA = NCCOCCOCC(=O)O; Aib = CC(C)(N)C(=O)O

For assay [1], the target named is human GLP-1 receptor (hGLP-1R) (Homo sapiens, UniProt P43220). Put plainly: cAMP production (HTRF) in CHO cells expressing hGLP-1R. The assay is classed as cell-based. Further details: expressed in transfected cells. The note with it: for EC50: cAMP in CHO hGLP-1R cells, geometric mean, read-out: hGLP-1R EC50; for % Relative Potency Ratio: % GLP-1R activity relative to GLP-1 / % GlucR activity relative to glucagon. A digest of the protocol: (§1)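 Read-out: HTRF cAMP (anti-cAMP cryptate donor, cAMP-d2 acceptor in conjugate/lysis buffer), converted to % Delta F and fitted by 4-parameter logistic for EC50. Cell densities were 1×10^5 cells/mL (hGLP-1R) or 2×10^5 cells/mL (hGCGR). Stimulation lasted 30 min at room temperature.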
Sequence of human GLP-1 receptor (hGLP-1R) (P43220 24-463): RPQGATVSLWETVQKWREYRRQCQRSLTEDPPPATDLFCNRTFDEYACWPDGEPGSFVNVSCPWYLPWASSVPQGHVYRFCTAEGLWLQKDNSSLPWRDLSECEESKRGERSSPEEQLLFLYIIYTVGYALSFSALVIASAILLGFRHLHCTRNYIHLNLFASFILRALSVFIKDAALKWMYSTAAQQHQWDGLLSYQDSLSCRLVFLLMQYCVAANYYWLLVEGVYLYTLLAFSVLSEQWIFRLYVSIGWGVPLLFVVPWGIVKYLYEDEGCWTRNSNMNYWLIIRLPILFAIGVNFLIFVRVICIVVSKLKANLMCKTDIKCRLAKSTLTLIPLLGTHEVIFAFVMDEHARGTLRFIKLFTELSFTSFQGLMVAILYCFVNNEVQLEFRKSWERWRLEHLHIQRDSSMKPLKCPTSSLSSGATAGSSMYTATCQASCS
(In general: cAMP levels reflect the balance of adenylyl cyclase and phosphodiesterase activity.)

For assay [2], the target named is human glucagon receptor (hGCGR) (Homo sapiens, UniProt P47871). Put plainly: cAMP production (HTRF) in CHO cells expressing hGCGR. The assay is classed as cell-based. Further details: expressed in transfected cells. The note with it: cAMP in CHO hGCGR cells, geometric mean, read-out: hGluc-R EC50. Summed up: as §1
Sequence of human glucagon receptor (hGCGR) (P47871 26-477): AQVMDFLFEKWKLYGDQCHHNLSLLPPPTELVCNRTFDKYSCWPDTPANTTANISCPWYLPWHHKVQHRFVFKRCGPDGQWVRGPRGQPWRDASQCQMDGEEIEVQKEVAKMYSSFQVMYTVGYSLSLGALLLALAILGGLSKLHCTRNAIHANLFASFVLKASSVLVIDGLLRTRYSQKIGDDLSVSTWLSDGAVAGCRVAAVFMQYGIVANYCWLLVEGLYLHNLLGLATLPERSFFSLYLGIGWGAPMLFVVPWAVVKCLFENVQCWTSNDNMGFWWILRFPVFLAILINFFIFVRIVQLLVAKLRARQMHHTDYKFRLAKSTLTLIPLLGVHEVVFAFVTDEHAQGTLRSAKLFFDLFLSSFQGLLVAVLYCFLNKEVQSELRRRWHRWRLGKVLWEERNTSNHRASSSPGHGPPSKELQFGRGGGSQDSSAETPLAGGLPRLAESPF
Setting [3] is: Table 6, peptides modified at position 17.
The mark [4] stands for this setting: Table 7, peptides modified at position 20.

With `CC(C)C[C@H](NC(=O)[C@H](Cc1c[nH]c2ccccc12)NC(=O)[C@H](C)NC(=O)[C@@H](NC(=O)[C@H](Cc1ccccc1)NC(=O)[C@H](CC(=O)O)NC(=O)[C@H](CCCNC(=N)N)NC(=O)[C@H](C)NC(=O)[C@H](CCCNC(=N)N)NC(=O)[C@H](CCCCNC(=O)COCCOCCNC(=O)COCCOCCNC(=O)CC[C@H](NC(=O)CCCCCCCCCCCCCCCCC(=O)O)C(=O)O)NC(=O)[C@@H](NC(=O)[C@H](CC(=O)O)NC(=O)[C@H](CC(C)C)NC(=O)[C@](C)(Cc1ccccc1)NC(=O)[C@H](CCCCN)NC(=O)[C@H](CO)NC(=O)[C@@H](NC(=O)[C@H](CC(=O)O)NC(=O)[C@H](CO)NC(=O)[C@@H](NC(=O)[C@H](Cc1ccccc1)NC(=O)[C@@H](NC(=O)CNC(=O)[C@H](CCC(N)=O)NC(=O)C(C)(C)NC(=O)[C@@H](N)Cc1c[nH]cn1)[C@@H](C)O)[C@@H](C)O)C(C)C)[C@@H](C)O)C(C)C)C(=O)N[C@@H](CC(C)C)C(=O)N[C@@H](CCC(=O)O)C(=O)NC(C)(C)C(=O)NCC(=O)O` [Peptide 200] (H-H[Aib]QGTFTSDVSK[αMeF]LDTK([AEEA-AEEA-γGlu-C18 diacid])RARDFVAWLLE[Aib]G-OH), the EC50 was 0.0227 nM in assay [1] (setting [3]) and 0.0977 nM in assay [2] (setting [3]). Moreover, in assay [1] (Table 6), the “% Relative Potency Ratio” value turned out to be 8.5.
The matching figures for `CC(C)C[C@H](NC(=O)[C@H](Cc1c[nH]c2ccccc12)NC(=O)[C@H](C)NC(=O)[C@@H](NC(=O)[C@H](Cc1ccccc1)NC(=O)[C@H](CC(=O)O)NC(=O)[C@H](CCCNC(=N)N)NC(=O)[C@H](C)NC(=O)[C@H](CCCNC(=N)N)NC(=O)[C@H](CCCCNC(=O)COCCOCCNC(=O)COCCOCCNC(=O)CC[C@H](NC(=O)CCCCCCCCCCCCCCCCC(=O)O)C(=O)O)NC(=O)[C@@H](NC(=O)[C@H](CC(=O)O)NC(=O)[C@H](CC(C)C)NC(=O)[C@](C)(Cc1ccccc1)NC(=O)[C@H](CCCCN)NC(=O)[C@H](CO)NC(=O)[C@@H](NC(=O)[C@H](CC(=O)O)NC(=O)[C@H](CO)NC(=O)[C@@H](NC(=O)[C@H](Cc1ccccc1)NC(=O)[C@@H](NC(=O)CNC(=O)[C@H](CCC(N)=O)NC(=O)C(C)(C)NC(=O)[C@@H](N)Cc1c[nH]cn1)[C@@H](C)O)[C@@H](C)O)C(C)C)[C@@H](C)O)C(C)C)C(=O)N[C@@H](CCC(=O)O)C(=O)N[C@@H](C)C(=O)NC(C)(C)C(=O)NCC(=O)O` [Peptide 201] (H-H[Aib]QGTFTSDVSK[αMeF]LDTK([AEEA-AEEA-γGlu-C18 diacid])RARDFVAWLEA[Aib]G-OH): 0.0227 nM, 0.183 nM and 15.9.
In the case of `CC(C)C[C@H](NC(=O)[C@H](Cc1c[nH]c2ccccc12)NC(=O)[C@H](CCC(N)=O)NC(=O)[C@@H](NC(=O)[C@H](Cc1ccccc1)NC(=O)[C@H](CC(=O)O)NC(=O)[C@H](CCCNC(=N)N)NC(=O)[C@H](C)NC(=O)[C@H](CCCNC(=N)N)NC(=O)[C@H](CCCCNC(=O)COCCOCCNC(=O)COCCOCCNC(=O)CC[C@H](NC(=O)CCCCCCCCCCCCCCCCC(=O)O)C(=O)O)NC(=O)[C@@H](NC(=O)[C@H](CC(=O)O)NC(=O)[C@H](CC(C)C)NC(=O)[C@](C)(Cc1ccccc1)NC(=O)[C@H](CCCCN)NC(=O)[C@H](CO)NC(=O)[C@@H](NC(=O)[C@H](CC(=O)O)NC(=O)[C@H](CO)NC(=O)[C@@H](NC(=O)[C@H](Cc1ccccc1)NC(=O)[C@@H](NC(=O)CNC(=O)[C@H](CCC(N)=O)NC(=O)C(C)(C)NC(=O)[C@@H](N)Cc1c[nH]cn1)[C@@H](C)O)[C@@H](C)O)C(C)C)[C@@H](C)O)C(C)C)C(=O)N[C@@H](CCC(=O)O)C(=O)N[C@@H](C)C(=O)NC(C)(C)C(=O)NCC(=O)O` [Peptide 202] (H-H[Aib]QGTFTSDVSK[αMeF]LDTK([AEEA-AEEA-γGlu-C18 diacid])RARDFVQWLEA[Aib]G-OH; N-terminus assumed), the figures for the EC50 in assay [1] (setting [3]) and in assay [2] (setting [3]) were 0.0178 nM and 0.242 nM, respectively. The “% Relative Potency Ratio” value in assay [1] (Table 6) worked out at 26.9.
As to `CC[C@H](C)[C@H](NC(=O)[C@H](Cc1c[nH]c2ccccc12)NC(=O)[C@H](CCC(N)=O)NC(=O)[C@@H](NC(=O)[C@H](Cc1ccccc1)NC(=O)[C@H](CC(=O)O)NC(=O)[C@H](CCCCNC(=O)COCCOCCNC(=O)COCCOCCNC(=O)CC[C@H](NC(=O)CCCCCCCCCCCCCCCCC(=O)O)C(=O)O)NC(=O)[C@H](C)NC(=O)[C@H](C)NC(=O)[C@H](CCCNC(=N)N)NC(=O)[C@H](CO)NC(=O)[C@H](CC(=O)O)NC(=O)[C@H](CC(C)C)NC(=O)[C@](C)(Cc1ccccc1)NC(=O)[C@H](CCCCN)NC(=O)[C@H](CO)NC(=O)[C@@H](NC(=O)[C@H](CC(=O)O)NC(=O)[C@H](CO)NC(=O)[C@@H](NC(=O)[C@](C)(Cc1ccccc1)NC(=O)[C@H](CO)NC(=O)CNC(=O)[C@H](Cc1c[nH]cn1)NC(=O)C(C)(C)NC(=O)[C@@H](N)Cc1c[nH]cn1)[C@@H](C)O)C(C)C)C(C)C)C(=O)N[C@@H](C)C(=O)N[C@@H](CC(N)=O)C(=O)N[C@H](C(N)=O)[C@@H](C)O` [Peptide 205] (H-H[Aib]HGS[αMeF]TSDVSK[αMeF]LDSRAAK([AEEA-AEEA-γGlu-C18 diacid])DFVQWIANT-NH2), the 50% effective concentration (EC50) came out at 0.0299 nM in assay [1] (setting [4]) and 0.00814 nM in assay [2] (setting [4]). For the same molecule, in assay [1] (Table 7), the “% Relative Potency Ratio” value came out at 0.5.
Turning to `CC[C@H](C)[C@H](NC(=O)[C@H](Cc1c[nH]c2ccccc12)NC(=O)[C@H](CCC(N)=O)NC(=O)[C@@H](NC(=O)[C@H](Cc1ccccc1)NC(=O)[C@H](CC(=O)O)NC(=O)[C@H](CCCCNC(=O)COCCOCCNC(=O)COCCOCCNC(=O)CC[C@H](NC(=O)CCCCCCCCCCCCCCCCC(=O)O)C(=O)O)NC(=O)[C@H](C)NC(=O)C(C)(C)NC(=O)[C@H](CCCNC(=N)N)NC(=O)[C@H](CO)NC(=O)[C@H](CC(=O)O)NC(=O)[C@H](CC(C)C)NC(=O)[C@](C)(Cc1ccccc1)NC(=O)[C@H](CCCCN)NC(=O)[C@H](CO)NC(=O)[C@@H](NC(=O)[C@H](CC(=O)O)NC(=O)[C@H](CO)NC(=O)[C@@H](NC(=O)[C@](C)(Cc1ccccc1)NC(=O)[C@H](CO)NC(=O)CNC(=O)[C@H](Cc1c[nH]cn1)NC(=O)C(C)(C)NC(=O)[C@@H](N)Cc1c[nH]cn1)[C@@H](C)O)C(C)C)C(C)C)C(=O)N[C@@H](C)C(=O)N[C@@H](CC(N)=O)C(=O)N[C@H](C(N)=O)[C@@H](C)O` [Peptide 206] (H-H[Aib]HGS[αMeF]TSDVSK[αMeF]LDSR[Aib]AK([AEEA-AEEA-γGlu-C18 diacid])DFVQWIANT-NH2), the EC50 was determined as 0.0709 nM in assay [1] (setting [4]) and 0.0182 nM in assay [2] (setting [4]). In addition, the “% Relative Potency Ratio” value in assay [1] (Table 7) was 0.5.
In the case of `CC[C@H](C)[C@H](NC(=O)C(C)(C)NC(=O)[C@H](CCC(N)=O)NC(=O)[C@@H](NC(=O)[C@H](Cc1ccccc1)NC(=O)[C@H](CC(=O)O)NC(=O)[C@H](CCCCNC(=O)COCCOCCNC(=O)COCCOCCNC(=O)CC[C@H](NC(=O)CCCCCCCCCCCCCCCCC(=O)O)C(=O)O)NC(=O)[C@H](C)NC(=O)[C@H](C)NC(=O)[C@H](CCC(N)=O)NC(=O)[C@H](CO)NC(=O)[C@H](CC(=O)O)NC(=O)[C@H](CC(C)C)NC(=O)[C@](C)(Cc1ccccc1)NC(=O)[C@H](CCCCN)NC(=O)[C@H](CO)NC(=O)[C@@H](NC(=O)[C@H](CC(=O)O)NC(=O)[C@H](CO)NC(=O)[C@@H](NC(=O)[C@](C)(Cc1ccccc1)NC(=O)[C@H](CO)NC(=O)CNC(=O)[C@H](Cc1c[nH]cn1)NC(=O)C(C)(C)NC(=O)[C@@H](N)Cc1c[nH]cn1)[C@@H](C)O)C(C)C)C(C)C)C(=O)N[C@@H](C)C(=O)N[C@@H](CC(N)=O)C(=O)N[C@H](C(N)=O)[C@@H](C)O` [Peptide 207] (H-H[Aib]HGS[αMeF]TSDVSK[αMeF]LDSQAAK([AEEA-AEEA-γGlu-C18 diacid])DFVQ[Aib]IANT-NH2), the EC50 in assay [1] (setting [4]) turned out to be 0.178 nM; in assay [2] (setting [4]), 0.0962 nM. For the same molecule, the “% Relative Potency Ratio” value in assay [1] (Table 7) was 1.1.
For the molecule `CC[C@H](C)[C@H](NC(=O)[C@H](Cc1c[nH]c2ccccc12)NC(=O)[C@H](CCC(N)=O)NC(=O)[C@@H](NC(=O)[C@H](Cc1ccccc1)NC(=O)[C@H](CC(=O)O)NC(=O)[C@H](CCCCNC(=O)CC[C@H](NC(=O)CCCCCCCCCCCCCCCCC(=O)O)C(=O)O)NC(=O)[C@H](C)NC(=O)[C@H](C)NC(=O)[C@H](CCCNC(=N)N)NC(=O)[C@H](CO)NC(=O)[C@H](CC(=O)O)NC(=O)[C@H](CC(C)C)NC(=O)[C@](C)(Cc1ccccc1)NC(=O)[C@H](CCCCN)NC(=O)[C@H](CO)NC(=O)[C@@H](NC(=O)[C@H](CC(=O)O)NC(=O)[C@H](CO)NC(=O)[C@@H](NC(=O)[C@H](Cc1ccccc1)NC(=O)[C@@H](NC(=O)CNC(=O)[C@H](CCC(N)=O)NC(=O)C(C)(C)NC(=O)[C@@H](N)Cc1c[nH]cn1)[C@@H](C)O)[C@@H](C)O)C(C)C)C(C)C)C(=O)N[C@@H](C)C(=O)N[C@@H](CC(N)=O)C(=O)N[C@H](C(N)=O)[C@@H](C)O` [Peptide 208], the concentration giving a half-maximal response (EC50) in assay [1] (setting [4]) was 0.0644 nM; in assay [2] (setting [4]), 0.658 nM. For the same molecule, the “% Relative Potency Ratio” value in assay [1] (Table 7) came to 20.2.

The term EC50 denotes the concentration that produces a half-maximal response.
